Experimental data from patent US6365619B1, “Treatment of arteriosclerosis” (Novartis AG, priority 1999, dated 2002).

Tests used:
[1] = system: neointimal formation in a mouse model of carotid artery transplantation; assay: Murine carotid artery loop transplantation: neointimal formation (transplant-associated arteriosclerosis); assay type: in vivo; settings: mean±SD
Text: The effect of compound 369 (VLA-4 antagonist) and compound 741 (VCAM-1 inhibitor) on the development of transplant-associated arteriosclerosis as measured by neointimal formation in a mouse model of carotid artery transplantation is investigated as mono-, combined, and tolerance induction therapy. Grafts are harvested at 30 days post-transplantation.
A murine model of accelerated transplant arteriosclerosis is used. Carotid arteries are allografted from B10.A (2R) to B10.BR mice, a commercially available strain combination that consistently results in neointimal formation 30 days after transplantation. The procedure is performed on anesthetized mice under a surgical dissecting microscope. A midline incision is made on the ventral side of neck from the suprasternal notch to the chin. The left carotid artery is gently dissected from the bifurcation in the distal end toward the proximal end as far as is technically possible. The artery is then occluded with two microvascular clamps, one at each end, and two longitudinal arteriotomies (0.5 to 0.6 mm) are made with a fine needle and scissors. In the donor mouse both the left and right carotid arteries are fully dissected from the arch to the bifurcation. The graft is then transplanted paratopically into the recipient in an end-to-side anastamosis with 11/0 continuous suture, and the skin incision is closed with a 5/0 interrupted suture. […] Vascular grafts are harvested 30 days after transplantation, a point at which a fully developed, nearly occlusive neointima is formed.
Compound 369: In the monotherapy experiments, compound 369 is administered three times per day subcutaneously (s.c.) for a total daily dose of 90 mg/kg/day.
Compound 741: Compound 741 is administered continuously via alzet pump in a dose of 5.0, 1.0, and 0.5 mg/kg/day, respectively.
Anti VLA-4 Mab: The anti VLA-4 antibody is administered 100 μg/mouse/d i.p.
A fixed dose of compound 369 is given as a total daily dose of 60 mg/kg/day s.c. and compound 741 is administered continuously via alzet pump at a dose of 5.0, 1.0, and 0.5 mg/kg/day, respectively.
Compound 369 (60 mg/kg/d) and compound 741 (5 mg/kg/d) are given simultaneously for the first 10 days only.
In all cases, allografts are harvested at day 30. […]
Morphometrical analysis is performed on VerHoeff stained paraffin sections using a computer-assisted image analysis system. The areas of the neointima are measured by computerized planimetry of sections obtained approximately 150, 300, and 450 μm from the center of the graft.
Data from morphometric analyses are reported as the neointima area on cross-section determined by subtracting the new lumen area measurement from the internal elastic lamina (IEL) area measurement for each animal. […]

[2] = Dissolution of compound 741 in dosing vehicle; assay type: physicochemical; settings: 1:1 mixture of CsA placebo solution (Cremphor, ethanol) and propylene glycol
Description: Compound 741 is dissolved in a 1:1 mixture of CsA placebo solution (each mL contains 650 mg of Cremphor and 32.9% ethanol) and propylene glycol. Compound 741 is very soluble in this mixture and the final solution is clear.

SMILES | neointima area on cross-section ([1]; monotherapy compound 369 90 mg/kg/d s.c. (three times per day), allograft harvested day 30) | neointima area on cross-section ([1]; monotherapy Cmpd.741 0.5 mg/kg/d continuously via alzet pump, allograft harvested day 30) | neointima area on cross-section ([1]; monotherapy Cmpd.741 1 mg/kg/d continuously via alzet pump, allograft harvested day 30) | neointima area on cross-section ([1]; monotherapy Cmpd.741 5 mg/kg/d continuously via alzet pump, B10.A (2R) to B10.BR allograft harvested day 30) | solubility [2]
COCCCN(CC(=O)N[C@@H](CC(=O)O)c1ccc(OC)c(OC)c1)C(=O)Cc1ccc(NC(=O)Nc2ccccc2C)cc1 [Cmpd.369, (S)-β-[3-Methoxypropyl)[[4-[(2-methylphenylaminocarbonylamino)-phenyl]acetyl]amino]acetylamino-3,4-dimethoxy-benzenepropanoic Acid] | 19,874 μm^2 |  |  |  | 
CCCCC(C)CC1NC(=O)C(Cc2cn(OC)c3ccccc23)N(C)C(=O)C(CC(C)C)NC(=O)C(CC(C)C)N(C)C(=O)C(CC(C)CCCC)NC(=O)C(CCC(=O)OCCC)OC(=O)C(C)N(C)C1=O (centres unmarked) [Cmpd.741] |  | 30,926 μm^2 | 32,249 μm^2 | 18,804 μm^2 | very soluble
